Columns and labels:
REDS3 cells = experiment: RFP reporter expression in REDS3 cells (live cell imaging); format: cell-based, human; settings: for RFP expression in REDS3 cells: single agent; for confirmed screening hit (RFP induction in REDS3 screen): library screen of 89,355 small molecules
Description: Cells were seeded on clear flat bottom 96-well or 384-well plates (Corning) and treated with the indicated compounds for the specified conditions. Live cell imaging pictures were taken with the Operetta High Content Screening System (PerkinElmer), 20× objective and non-confocal mode.
Only RFP-positive nuclei were detected and counted.
The increase of RFP fluorescence, detected with the Operetta High Content Screening System (PerkinElmer), 20× objective and non-confocal mode, was used as read-out.
Briefly, the screening was divided in three parts called respectively 1) primary screening, 2) follow up and 3) validation. During the primary screening REDS3 cells were treated with 10 μM of every compound, and live cell imaging pictures were taken in order to assess their ability to induce RFP expression 24 hours later.

TAF1(BD2) [1] = target: T1, TAF1(BD2) (Homo sapiens, UniProt P21675); experiment: BROMOscan primary screen, binding to TAF1(BD2); settings: for inhibition at 1 µM: read-out: TAF1_BD2 (% inhibition at 1 μM); for TAF1_BD2 (% inhibition at 1 μM): 1 μM compound, DMSO = 0%, 30 μM BI2536 = 100% inhibition
T1 construct: the second bromodomain of TAF1 (TAF1 (2)); purchased DiscoverX Corporation (contract assay); host or cells: T7 phage in E. coli host derived from BL21
T1 sequence (P21675 1519-1628 limits assumed): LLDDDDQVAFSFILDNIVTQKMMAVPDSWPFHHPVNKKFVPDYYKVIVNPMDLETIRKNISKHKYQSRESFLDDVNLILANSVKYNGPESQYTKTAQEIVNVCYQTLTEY
Description: The binding of these compounds to TAF1 was tested by DiscoverX Corporation (Fremont, Calif., USA) in a primary screen using the BROMOscan assay, which is a ligand binding site-directed competition assay that allows to quantitatively measure interactions between test compounds and bromodomains (see Fabian et al., 2005 for an explanation of the principle of this assay), according to the following protocol:
(§1) Bromodomain assays: T7 phage strains displaying bromodomains were grown in parallel in 24-well blocks in an E. coli host derived from the BL21 strain. E. coli were grown to log-phase and infected with T7 phage from a frozen stock (multiplicity of infection=0.4) and incubated with shaking at 32° C. until lysis (90-150 minutes). The lysates were centrifuged (5,000×g) and filtered (0.2 μm) to remove cell debris. Streptavidin-coated magnetic beads were treated with biotinylated small molecule or acetylated peptide ligands for 30 minutes at room temperature to generate affinity resins for bromodomain assays. The liganded beads were blocked with excess biotin and washed with blocking buffer (SeaBlock (Pierce), 1% BSA, 0.05% Tween 20, 1 mM DTT) to remove unbound ligand and to reduce non-specific phage binding. […] Test compounds were prepared as 1000× stocks in 100% DMSO and subsequently diluted 1:25 in monoethylene glycol (MEG). The compounds were then diluted directly into the assays such that the final concentrations of DMSO and MEG were 0.1% and 2.4%, respectively. All reactions were performed in polypropylene 384-well plates in a final volume of 0.02 ml. […] The bromodomain concentration in the eluates was measured by qPCR.

THP1 cells [2] = experiment: Cell cycle assay in THP1 cells; settings: 48 hours
Description: (e) Quantification of cells in S-phase by staining the nuclei with PI and analyzing DNA content by FACS. […] Three different biological replicates were performed and 30,000 cells were analysed each time (mean±STD).
For cell cycle analysis, cells were fixed with 70% ethanol for 24 hours, washed with PBS/0.1%-Tween and incubated with RNase for 20 minutes. Nuclei were stained with 5 μg/ml PI (propidium iodide, Sigma) for 10 minutes prior to FACS analysis (BD FACSCalibur Flow Cytometer).

KBM7 cells = experiment: CellTiterGlo viability of control and TAF1 downregulated KBM7 cells; settings: shRNA TAF1 vs control, 96 hours
THP1 cells [3] = experiment: AnnexinV apoptosis assay in THP1 cells; settings: 72 hours
Description: (f) Quantification of AnnexinV positive cells from immunofluorescence images. […] At least 3 biological replicates were performed and more than 1,500 cells were quantified for each point (mean±STD).
Apoptotic cells were detected using the Annexin V-FITC Apoptosis detection kit (Abcam) according to the manufacturer's instruction. Apoptosis quantification was performed with the Harmony software (PerkinElmer) for nuclei and cytoplasm detection and analysis, adapted for the nucleus diameter range and cell shape of the specific cell line used.

TAF1(BD2) [4] = target: T1, TAF1(BD2); experiment: BROMOscan binding constant determination for TAF1(BD2); settings: 11-point 3-fold dilution series, read-out: TAF1_BD2 (IC50 μM)
Description: as §1, with “100% DMSO. Kds were determined using an 11-point 3-fold compound dilution series with one” for “100%”, “control point. […]” for “and subsequently diluted 1:25 in monoethylene glycol (MEG).”, “concentration” for “concentrations”, “was 0.09%.” for “and MEG were 0.1% and 2.4%, respectively.”, “reactions” for “reactions were”, “plates. Each was” for “plates in”
Compound handling: An 11-point 3-fold serial dilution of each test compound was prepared in 100% DMSO at 1000× final test concentration. […] The compounds were then diluted directly into the assays such that the final concentration of DMSO was 0.09%. Most Kds were determined using a compound top concentration=10,000 nM. If the initial Kd determined was <0.169 nM (the lowest concentration tested), the measurement was repeated with a serial dilution starting at a lower top concentration.
Binding constants (Kds) were calculated with a standard dose-response curve using the Hill equation: […]
The Hill Slope was set to −1. Curves were fitted using a non-linear least square fit with the Levenberg-Marquardt algorithm.
The results thus obtained are reported in the following table as IC50 values [μM] for TAF1(BD2).

CREBBP = CREBBP (Homo sapiens, UniProt Q92793); experiment: BromoScan / BromoELECT / BromoKdELECT, CREBBP; format: binding; settings: BromoScan/BromoELECT, 10 μM
Description: (§2) Bubbles indicate the percentage of inhibition of the binding of the analyzed bromodomains to an acetylated substrate. […] (g) BromoKdELECT assay for CeMMEC1 against TAF1 (2). […] (i) Docking of CeMMEC1 to the second bromodomain of TAF1. 3D model (top panel) and 2D ligand interaction diagram (bottom panel). Red dots in the 3D model indicate water molecules.
(§3) (c) not used (d) KinomeScan profile for CeMMEC1 (10 μM). Bubbles indicate the percentage of inhibition of the binding of the analyzed kinase to an immobilized ligand.

TAF1 (2) = target: T2, TAF1 (2) (Homo sapiens, UniProt P21675); experiment: BromoScan / BromoELECT / BromoKdELECT, TAF1 (2); format: binding; settings: BromoScan/BromoELECT, 10 μM
T2 construct: the second bromodomain of TAF1 (TAF1 (2)); purchased DiscoverX Corporation (contract assay); host or cells: T7 phage in E. coli host derived from BL21
T2 sequence (P21675 1519-1628 limits assumed): T1 sequence (P21675 1519-1628 limits assumed)
Description: as §2, §3

CREBBP, sequence (Q92793 1085-1192 limits assumed): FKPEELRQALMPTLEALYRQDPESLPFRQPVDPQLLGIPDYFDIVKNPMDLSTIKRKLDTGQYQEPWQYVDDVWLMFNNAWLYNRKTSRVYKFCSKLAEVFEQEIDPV

CCCCCCCCCCCCCC(=O)O[C@@H]1[C@@H](C)[C@@]2(O)[C@@H](C=C(CO)C[C@]3(O)C(=O)C(C)=C[C@@H]23)[C@@H]2C(C)(C)[C@]12OC(C)=O [PMA, phorbol myristate acetate]
RFP expression in REDS3 cells (REDS3 cells): No increase of RFP-positive nuclei was observed

COc1cc(OC)cc(C(=O)NC2CCCc3c2ccc(=O)n3C)c1 (stereo not shown) [Compound 4-33]
inhibition at 1 µM (TAF1(BD2) [1]): 11%

COc1cc(OC)cc(C(=O)Nc2cccc3c2ccc(=O)n3C)c1 [Compound 4-28]
inhibition at 1 µM (TAF1(BD2) [1]): 50%

Cc1sc2c(c1C)C(c1ccc(Cl)cc1)=N[C@@H](CC(=O)OC(C)(C)C)c1nnc(C)n1-2 [(S)-JQ1, reference compound]
lowest concentration causing full activation of RFP signal (REDS3 cells; 24 hours): 0.5 µM | confirmed screening hit (RFP induction in REDS3 screen) (REDS3 cells; 24 hours): part of this group | RFP expression in REDS3 cells (REDS3 cells): clear and robust increase of RFP expression | number of cells in S-phase (THP1 cells [2]): clear and dose-dependent decrease of the number of cells in S-phase | cell viability with TAF1 downregulation (KBM7 cells): Downregulation of TAF1 decreased cell viability when (S)-JQ1 was used at concentrations not able to affect control cells | apoptosis (AnnexinV staining) (THP1 cells [3]): induced apoptosis

COc1ccccc1S(=O)(=O)Nc1ccc2c(c1)CN(C)C(=O)N2 [PFI1]
confirmed screening hit (RFP induction in REDS3 screen) (REDS3 cells; 24 hours): part of this group

Cn1ccc(C(=O)Nc2ccc3c(c2)OCCO3)cc1=O [Compound 4-10]
inhibition at 1 µM (TAF1(BD2) [1]): 3%

COc1ccc(C(=O)Nc2cccc3c2ccc(=O)n3C)cc1 [Compound 4-26]
IC50 (TAF1(BD2) [4]): 0.056 µM | TAF1_BD2 (% inhibition at 1 μM) (TAF1(BD2) [1]): 82%

Cn1c(=O)ccc2c(NC(=O)c3ccc4c(c3)CCCO4)cccc21 [Compound 4-25]
TAF1_BD2 (% inhibition at 1 μM) (TAF1(BD2) [1]): 4%

Cc1sc2c(c1C)C(c1ccc(Cl)cc1)=N[C@@H](CC(=O)Nc1ccc(O)cc1)c1nnc(C)n1-2 [OXT015]
confirmed screening hit (RFP induction in REDS3 screen) (REDS3 cells; 24 hours): part of this group

Cn1c2c(ccc1=O)C(NC(=O)c1ccc(OC(F)(F)F)cc1)CCC2 (stereo not shown) [Compound 4-32]
inhibition at 1 µM (TAF1(BD2) [1]): 10%

COc1cc(OC)c2c(=O)[nH]c(-c3cc(C)c(OCCO)c(C)c3)nc2c1 [RVX208]
confirmed screening hit (RFP induction in REDS3 screen) (REDS3 cells; 24 hours): part of this group

CCC(=O)N1CCOc2c(cc(-c3ccc(OC)c(OC)c3)cc2OC[C@H]2CCCN(C)C2)C1 [I-CBP112]
RFP expression in REDS3 cells (REDS3 cells): No RFP expression was detected

phytohemagglutinin [PHA]
RFP expression in REDS3 cells (REDS3 cells): No increase of RFP-positive nuclei was observed

COc1cc(NC(=O)c2cc(=O)n(C)c3ccccc23)cc(OC)c1 [Compound 4-4]
inhibition at 1 µM (TAF1(BD2) [1]): 48%

Cn1c(=O)ccc2c(C(=O)Nc3ccc4c(c3)OCCO4)cccc21 [Compound 4-24]
inhibition at 1 µM (TAF1(BD2) [1]): 58%

CC[C@@H]1C(=O)N(C)c2cnc(Nc3ccc(C(=O)NC4CCN(C)CC4)cc3OC)nc2N1C1CCCC1 [BI-2536]
confirmed screening hit (RFP induction in REDS3 screen) (REDS3 cells; 24 hours): part of this group

COc1ccc(CCc2nc3cc(-c4c(C)noc4C)ccc3n2C[C@H](C)N2CCOCC2)cc1Cl [CBP30]
increase of RFP-positive cells compared to DMSO treated cells (REDS3 cells; 10 μM, 24 hours): 1.5 fold

Cn1c2c(ccc1=O)C(NC(=O)c1ccc3c(c1)OCCO3)CCC2 (stereo not shown) [Compound 4-29]
inhibition at 1 µM (TAF1(BD2) [1]): 32%

COc1ccc(C(=O)Nc2cccc3c(=O)n(C)ccc23)cc1 [Compound 4-16]
inhibition at 1 µM (TAF1(BD2) [1]): 34%

COc1cc2c(cc1-c1c(C)noc1C)ncc1[nH]c(=O)n([C@H](C)c3ccccn3)c12 [I-BET151]
confirmed screening hit (RFP induction in REDS3 screen) (REDS3 cells; 24 hours): part of this group

Cn1ccc2c(NC(=O)c3ccc4c(c3)OCCO4)cccc2c1=O [Compound 30]
RFP expression in REDS3 cells in combination with (S)-JQ1 (REDS3 cells; combination with (S)-JQ1): further boosted RFP expression beyond the increase in single treatments | RFP expression in REDS3 cells (REDS3 cells): comparable induction of RFP expression in REDS3 cells | binding to CREBBP (CREBBP): lost all affinity to CREBBP | IC50 (TAF1(BD2) [4]): 4 µM | binding to TAF1 (2) (TAF1 (2)): retaining TAF1 activity

COc1cc(NC(=O)c2ccn(C)c(=O)c2)cc(OC)c1 [Compound 4-14]
inhibition at 1 µM (TAF1(BD2) [1]): 20%

Cn1c(=O)cc(C(=O)Nc2ccc(OC(F)(F)F)cc2)c2ccccc21 [Compound 4-3]
inhibition at 1 µM (TAF1(BD2) [1]): 20%

Cc1cnc(Nc2ccc(OCCN3CCCC3)cc2)nc1Nc1cccc(S(=O)(=O)NC(C)(C)C)c1 [TG-101348]
confirmed screening hit (RFP induction in REDS3 screen) (REDS3 cells; 24 hours): part of this group

Cn1ccc(C(=O)Nc2ccc(OC(F)(F)F)cc2)cc1=O [Compound 4-13]
inhibition at 1 µM (TAF1(BD2) [1]): 3%

Cn1c(=O)cc(C(=O)Nc2ccc3c(c2)OCCO3)c2ccccc21 [Compound 4-1]
IC50 (TAF1(BD2) [4]): 0.25 µM | TAF1_BD2 (% inhibition at 1 μM) (TAF1(BD2) [1]): 89%

COc1ccc(C(=O)NC2CCCc3c2ccc(=O)n3C)cc1 (stereo not shown) [Compound 4-31]
inhibition at 1 µM (TAF1(BD2) [1]): 34%

Cn1ccc2c(NC(=O)c3ccc(OC(F)(F)F)cc3)cccc2c1=O [Compound 4-17]
inhibition at 1 µM (TAF1(BD2) [1]): 11%

COc1ccc(NC(=O)c2cc(=O)n(C)c3ccccc23)cc1 [Compound 4-2]
inhibition at 1 µM (TAF1(BD2) [1]): 9%
